Test results as given in BindingDB's records for patent US12187742 (Xrad Therapeutics, 2025).

biological target: DNA-dependent protein kinase catalytic subunit (Homo sapiens, UniProt P78527); test: DNA-PK Enzyme-Linked Immunosorbent Assay
Procedure: On day one, coat 96-well plate (ThermoFisher. Cat #: 442404) with GST-p53 (1-101) peptide (purified by Pharmaron, BCS department) by diluting 3 μg of GST-p53 each well with 0.1 M Na2CO3/NaHCO3, pH 9.6. Incubate the plate overnight at 4° C. The second day, remove coating buffer, wash 2× with PBST (1×PBS containing 0.1% Tween-20). Then add DNA-PK enzyme solution (Invitrogen, #PR9107A; the final DNA-PK concentration is 0.1 μg/mL), series dilution compounds (the final top concentration is 100 nM, 3 fold series dilution, with total 10 doses) and ATP solution (the final ATP concentration is 20 μM) to the 96-well plate. Incubate the plate at 25° C. for 1 hour. Then wash 3× with PBST (1×PBS containing 0.1% Tween-20). Block the plate with PBST+ 1% BSA at 4° C. overnight. The third day, wash 4× with PBST (1×PBS containing 0.1% Tween-20). Then add Phospho-p53 primary antibody (cell signaling Technology, #9286, Phospho-p53 (Ser15) (16G8) Mouse mAb) (1/1000) to each well. Seal with plate and incubate the plate for 1 h at 37° C. Wash 4× with PBST (1×PBS containing 0.1% Tween-20), add 100 μL of HRP-linked secondary antibody (Cell signaling Technology, #7076, Anti-mouse IgG, HRP-linked Antibody) (1/1000) to each well. Seal with tape and incubate the plate for 30 min at 37° C. Wash 4× with PBST (1×PBS containing 0.1% Tween-20), add 100 μL of TMB (Cell signaling Technology, #7004) substrate to each well. Seal with tape and incubate the plate for 10 min at 37° C. Then add 100 μL of Stop solution (Cell signaling Technology, #7002) to each well. Read the plate at 450 nm to detect absorption.

Sequence of DNA-dependent protein kinase catalytic subunit (P78527 whole entry): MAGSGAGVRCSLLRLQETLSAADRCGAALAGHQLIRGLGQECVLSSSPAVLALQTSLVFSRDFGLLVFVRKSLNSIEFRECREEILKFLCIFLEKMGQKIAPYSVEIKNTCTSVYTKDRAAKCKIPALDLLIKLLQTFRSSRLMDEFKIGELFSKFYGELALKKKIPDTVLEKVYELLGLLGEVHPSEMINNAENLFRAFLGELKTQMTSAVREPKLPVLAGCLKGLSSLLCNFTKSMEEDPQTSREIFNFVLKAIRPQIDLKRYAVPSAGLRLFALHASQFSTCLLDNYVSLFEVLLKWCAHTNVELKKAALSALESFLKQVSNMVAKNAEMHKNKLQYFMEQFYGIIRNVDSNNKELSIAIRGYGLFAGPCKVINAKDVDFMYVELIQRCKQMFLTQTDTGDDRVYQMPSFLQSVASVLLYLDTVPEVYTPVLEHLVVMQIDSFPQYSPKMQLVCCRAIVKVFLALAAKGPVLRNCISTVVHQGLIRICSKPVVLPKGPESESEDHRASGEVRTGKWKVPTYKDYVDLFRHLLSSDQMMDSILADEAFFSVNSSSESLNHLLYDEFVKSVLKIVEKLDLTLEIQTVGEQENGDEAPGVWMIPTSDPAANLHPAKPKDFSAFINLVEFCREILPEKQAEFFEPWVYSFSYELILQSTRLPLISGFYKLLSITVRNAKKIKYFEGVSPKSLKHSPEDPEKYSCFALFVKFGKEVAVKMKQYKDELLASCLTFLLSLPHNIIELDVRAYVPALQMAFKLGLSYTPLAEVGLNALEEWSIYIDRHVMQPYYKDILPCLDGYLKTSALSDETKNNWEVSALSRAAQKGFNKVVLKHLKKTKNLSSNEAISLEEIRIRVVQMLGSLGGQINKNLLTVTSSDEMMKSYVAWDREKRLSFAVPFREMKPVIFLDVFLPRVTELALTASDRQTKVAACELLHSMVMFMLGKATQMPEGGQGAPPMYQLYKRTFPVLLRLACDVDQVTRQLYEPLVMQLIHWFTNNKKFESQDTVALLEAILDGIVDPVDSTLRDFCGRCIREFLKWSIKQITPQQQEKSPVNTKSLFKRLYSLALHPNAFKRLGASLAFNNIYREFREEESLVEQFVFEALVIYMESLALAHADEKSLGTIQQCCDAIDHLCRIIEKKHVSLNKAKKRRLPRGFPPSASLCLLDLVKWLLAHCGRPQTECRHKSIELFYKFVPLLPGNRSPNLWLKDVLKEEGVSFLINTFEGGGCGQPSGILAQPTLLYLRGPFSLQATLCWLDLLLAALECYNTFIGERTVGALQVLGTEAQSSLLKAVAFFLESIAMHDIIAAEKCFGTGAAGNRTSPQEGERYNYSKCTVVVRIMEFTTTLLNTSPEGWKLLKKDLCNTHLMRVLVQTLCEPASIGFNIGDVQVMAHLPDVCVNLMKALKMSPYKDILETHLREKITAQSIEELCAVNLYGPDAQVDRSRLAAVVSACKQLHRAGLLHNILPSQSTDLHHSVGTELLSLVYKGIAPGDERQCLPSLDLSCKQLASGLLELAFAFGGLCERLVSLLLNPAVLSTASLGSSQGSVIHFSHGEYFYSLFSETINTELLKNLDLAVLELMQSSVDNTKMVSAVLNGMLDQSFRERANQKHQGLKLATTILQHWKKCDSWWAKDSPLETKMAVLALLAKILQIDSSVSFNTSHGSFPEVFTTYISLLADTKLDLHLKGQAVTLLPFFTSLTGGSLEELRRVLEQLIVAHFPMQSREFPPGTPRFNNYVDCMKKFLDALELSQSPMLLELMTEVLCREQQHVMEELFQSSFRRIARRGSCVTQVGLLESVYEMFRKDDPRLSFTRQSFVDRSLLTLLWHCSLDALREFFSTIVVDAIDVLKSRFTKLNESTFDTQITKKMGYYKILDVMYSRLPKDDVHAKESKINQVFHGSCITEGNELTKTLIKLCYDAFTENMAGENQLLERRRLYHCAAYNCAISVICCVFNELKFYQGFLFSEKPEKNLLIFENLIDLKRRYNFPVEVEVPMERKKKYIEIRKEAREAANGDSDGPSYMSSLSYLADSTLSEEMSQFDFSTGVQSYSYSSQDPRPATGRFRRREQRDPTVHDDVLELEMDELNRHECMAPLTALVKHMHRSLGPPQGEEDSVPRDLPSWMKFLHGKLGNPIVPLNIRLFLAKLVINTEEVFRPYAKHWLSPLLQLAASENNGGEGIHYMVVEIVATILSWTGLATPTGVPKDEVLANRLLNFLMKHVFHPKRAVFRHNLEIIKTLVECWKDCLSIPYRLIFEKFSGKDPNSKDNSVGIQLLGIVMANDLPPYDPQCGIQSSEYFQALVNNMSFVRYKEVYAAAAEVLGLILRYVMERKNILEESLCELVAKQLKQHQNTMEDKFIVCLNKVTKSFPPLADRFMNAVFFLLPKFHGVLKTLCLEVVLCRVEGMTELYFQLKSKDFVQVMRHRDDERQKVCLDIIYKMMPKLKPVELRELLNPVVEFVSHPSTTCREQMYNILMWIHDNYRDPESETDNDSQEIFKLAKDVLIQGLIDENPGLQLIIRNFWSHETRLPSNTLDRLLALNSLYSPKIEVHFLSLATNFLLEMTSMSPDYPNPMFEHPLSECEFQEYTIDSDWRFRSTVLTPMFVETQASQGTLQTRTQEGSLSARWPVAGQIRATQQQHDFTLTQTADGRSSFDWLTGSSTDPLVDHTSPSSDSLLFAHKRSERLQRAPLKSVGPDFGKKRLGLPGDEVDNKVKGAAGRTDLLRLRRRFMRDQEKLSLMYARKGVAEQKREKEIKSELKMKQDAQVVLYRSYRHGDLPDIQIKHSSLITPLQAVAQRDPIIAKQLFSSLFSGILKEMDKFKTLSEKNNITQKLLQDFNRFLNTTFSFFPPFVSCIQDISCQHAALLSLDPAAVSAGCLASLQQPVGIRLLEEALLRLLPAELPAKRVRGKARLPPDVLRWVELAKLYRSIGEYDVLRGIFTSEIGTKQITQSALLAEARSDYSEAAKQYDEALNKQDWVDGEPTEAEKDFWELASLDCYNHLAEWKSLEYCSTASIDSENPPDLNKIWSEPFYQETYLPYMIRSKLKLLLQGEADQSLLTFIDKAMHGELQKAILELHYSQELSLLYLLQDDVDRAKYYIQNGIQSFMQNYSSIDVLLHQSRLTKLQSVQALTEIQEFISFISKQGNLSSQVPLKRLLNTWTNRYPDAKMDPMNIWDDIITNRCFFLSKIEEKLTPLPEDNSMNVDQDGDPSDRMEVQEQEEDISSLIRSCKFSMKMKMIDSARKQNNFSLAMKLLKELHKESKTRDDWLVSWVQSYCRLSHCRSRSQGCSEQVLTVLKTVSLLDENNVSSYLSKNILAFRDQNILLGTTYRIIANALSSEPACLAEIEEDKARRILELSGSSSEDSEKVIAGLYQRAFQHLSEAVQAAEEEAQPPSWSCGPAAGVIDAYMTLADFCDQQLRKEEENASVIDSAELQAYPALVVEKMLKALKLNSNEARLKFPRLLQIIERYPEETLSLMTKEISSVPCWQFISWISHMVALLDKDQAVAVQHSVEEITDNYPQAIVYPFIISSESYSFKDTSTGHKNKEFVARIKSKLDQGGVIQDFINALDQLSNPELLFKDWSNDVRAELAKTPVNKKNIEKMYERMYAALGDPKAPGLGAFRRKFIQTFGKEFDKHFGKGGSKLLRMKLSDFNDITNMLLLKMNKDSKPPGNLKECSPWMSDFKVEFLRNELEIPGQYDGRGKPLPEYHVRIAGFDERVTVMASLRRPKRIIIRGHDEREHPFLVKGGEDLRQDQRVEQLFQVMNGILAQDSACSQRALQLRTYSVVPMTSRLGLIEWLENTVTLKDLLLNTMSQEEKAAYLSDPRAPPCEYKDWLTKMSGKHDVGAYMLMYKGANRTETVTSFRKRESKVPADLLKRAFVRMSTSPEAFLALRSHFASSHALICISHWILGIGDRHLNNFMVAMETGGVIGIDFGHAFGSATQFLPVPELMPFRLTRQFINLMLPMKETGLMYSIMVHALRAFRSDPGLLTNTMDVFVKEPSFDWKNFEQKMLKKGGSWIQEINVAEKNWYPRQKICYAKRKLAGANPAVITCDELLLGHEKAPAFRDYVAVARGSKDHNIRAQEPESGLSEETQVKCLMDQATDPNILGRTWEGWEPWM

Question: How did the IC50 turn out when `CN1C(=O)C2(CC2)c2c1cnc1ccc(-c3cnc(OCCCN4CCCC4)c(NS(=O)(=O)C4CC4)c3)cc21` [US12187742, Example 60] was run?
Answer: Its IC50 is less than 0.5 nM.

Question: `COc1ncc(-c2ccc3ncc4c(c3c2)C2(CC2)C(=O)N4C)cc1NS(=O)(=O)c1cccc(C(C)O)c1` (configuration not stated) [US12187742, Example 18] was tested. Which IC50 did it give?
Answer: Its IC50 is less than 0.5 nM.

Question: `CN(C)CCCOc1ncc(-c2ccc3ncc4c(c3c2)C2(CC2)C(=O)N4C)cc1NS(=O)(=O)c1cccs1` [US12187742, Example 120] was tested. Which IC50 did it give?
Answer: The IC50 was less than 0.5 nM.

Question: `CN1CC=C(c2ncc(-c3ccc4ncc5c(c4c3)C3(CCC3)C(=O)N5C)cc2NS(C)(=O)=O)CC1` [US12187742, Example 276] was tested. Which IC50 did it give?
Answer: The IC50 was less than 0.5 nM.

Question: For `CC(C)NCCOc1ncc(-c2ccc3ncc4c(c3c2F)C2(CCC2)C(=O)N4C)cc1NS(C)(=O)=O` [US12187742, Example 556], which IC50 is on record?
Answer: The IC50 was less than 0.5 nM.

Question: Which IC50 does the source give for `CN(C)CCCOc1ncc(-c2ccc3ncc4c(c3c2)C2(CC2)C(=O)N4C)cc1NS(=O)(=O)c1ccc(C(F)(F)F)cc1` [US12187742, Example 108] here?
Answer: The IC50 was less than 0.5 nM.

Question: For `CN(C)CCCOc1ncc(-c2ccc3ncc4c(c3c2)C2(CC2)C(=O)N4C)cc1NS(=O)(=O)c1cccnc1` [US12187742, Example 85], which IC50 is on record?
Answer: The IC50 was less than 0.5 nM.
